This note sets out measurements from US6346613B1, “Composition and method for enhancing paracellular transport across cell layers” (Elan Corporation, plc, priority 1997, dated 2002).

“And” between values parts separate entries of the source, which are not always exact repeats. Identical values can stand only once.

One data set concerns Caco-2 monolayers. Kind of data set: Transepithelial electrical resistance (TER) of Caco-2 monolayers on snapwells. In kind it is cell-based, Human. Further details: unit not given beside the values. The following applies: Experiment 1, per snapwell, treatment with lipofectamine + oligonucleotide. The method, then:
All solutions were warmed to 37° C. before use.

Where [1] appears, read: Experiment 1, [3H]-mannitol, 90 minutes, Caco-2.

Protocol for polarized Caco-2 cells: Human intestinal Caco-2 cells were grown using standard techniques well known to those skilled in the art. The cells were seeded onto polycarbonate filters (Costar Snapwells; diameter=12 mm; area=1.13 cm^2; pore size=0.4m) at a density of 0.5×10^6 cm^2. For antisense oligonucleotide studies, 18-25 day old cell monolayers were used which have transepithelial electrical resistance (TER) measurements in the range 200-400 cm^2.
All incubations were at 37° C. in 5% CO2 atmosphere. All solutions were warmed to 37° C. before use. The following procedure was carried out once a day over three days. After reading the TER, the cells were washed once and incubated in a reduced serum medium (RSM; Opti-MEM 1 with GlutaMax 1; Gibco-BRL) for 30 minutes. Meanwhile, the lipofectamine-oligonucleotide complex was allowed to form at room temperature. Lipofectamine (20 μl/snapwell; Gibco BRL CN. 18324-012) was mixed with occludin antisense DNA oligonucleotide, with occludin scrambled oligonucleotide or with water control in RSM.
The lipofectin:oligonucleotide complex was added to the apical surface of the snapwells and the cells were incubated for 2 hours. The apical and basolateral media were then replaced with normal medium (except on day 4). After the 2 hour incubation on day 3, transepithelial flux of ^3H-mannitol was measured.
Caco-2 cells were washed once in buffered Hank's balanced salt solution (bHBSS; Gibco CN.14065-031; supplemented with 0.011M glucose, 15 mM HEPES acid [3.575 g/l; Sigma CN.H3375], 10 mM HEPES base [2.603 g/l; Sigma CN. H1016]) and were incubated 30 minutes. The apical reservoir bHBSS was replaced with 1 ml buffered HBSS containing 1 μCi/ml of the hydrophilic marker ^3H-mannitol (New England Biolabs). […] The samples were added to 4 ml scintillation fluid and radioactivity for each vial counted on a scintillation counter.
Fully differentiated Caco-2 monolayers were grown as in Example 1. […] On day 4, [^3H]-mannitol was applied to the apical domain and flux was determined by measuring the radioactivity (cpm) transferred to the basolateral reservoir over 90 minutes as in Example 3. […]

“5′ AAG AGG CCT GGA TGA CA 3′ (antisense AAGAGGCCTGGATGACA; chemistry not given here) [occludin antisense oligonucleotide]”: in the data set on polarized Caco-2 cells (setting [1]), the “increase in flux relative to no oligonucleotide” value was found to be 1.6 fold and the “increase in flux relative to occludin scrambled oligonucleotide” value came to 1.6 fold. Further, in the data set with polarized Caco-2 cells (Experiment 2 (FIG. 2), 500 μM, Caco-2 monolayers on snapwells), the “mean increase in [3H]-mannitol flux relative to control scrambled sequence antisense DNA” value is listed as 2.2 fold. In the data set on Caco-2 monolayers (listed as Lipofectamine + Occludin Antisense), the TER is 1260 and 1410.
Regarding “5′ GCA AGT CAG GAC GTA GA 3′ (GCAAGTCAGGACGTAGA; chemistry not given here) [occludin scrambled oligonucleotide, reference compound]”, the TER in the data set on Caco-2 monolayers (listed as Lipofectamine + Scrambled Antisense) was 1280 and 1700.
